Assays:
[1] = test system: absorption of sodium from the intestinal lumen; assay: Fecal form score (FFS) 16 h after oral dose in rats; assay type: in vivo, rat; conditions: oral gavage, 16 h post-dose, scale 1-5
Procedure, shortened: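 Fecal form was scored at 16 h post-dose on a 1–5 wetness scale (normal pellet to liquid stream), with two independent observations averaged across six rats per group. Animals were 8-week-old Sprague-Dawley rats given test compound or water orally in the late afternoon and kept in metabolic cages.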

[2] = target: T1, Human NHE3 (Homo sapiens, UniProt P48764); assay: Cell-based NHE3 activity under prompt conditions (OK cells, BCECF pH recovery), human NHE3; conditions: prompt conditions
T1 construct: expressed in transfected cells; host or cells: Opossum kidney (OK) cells (ATCC), electroporation
T1 sequence (P48764 26-834): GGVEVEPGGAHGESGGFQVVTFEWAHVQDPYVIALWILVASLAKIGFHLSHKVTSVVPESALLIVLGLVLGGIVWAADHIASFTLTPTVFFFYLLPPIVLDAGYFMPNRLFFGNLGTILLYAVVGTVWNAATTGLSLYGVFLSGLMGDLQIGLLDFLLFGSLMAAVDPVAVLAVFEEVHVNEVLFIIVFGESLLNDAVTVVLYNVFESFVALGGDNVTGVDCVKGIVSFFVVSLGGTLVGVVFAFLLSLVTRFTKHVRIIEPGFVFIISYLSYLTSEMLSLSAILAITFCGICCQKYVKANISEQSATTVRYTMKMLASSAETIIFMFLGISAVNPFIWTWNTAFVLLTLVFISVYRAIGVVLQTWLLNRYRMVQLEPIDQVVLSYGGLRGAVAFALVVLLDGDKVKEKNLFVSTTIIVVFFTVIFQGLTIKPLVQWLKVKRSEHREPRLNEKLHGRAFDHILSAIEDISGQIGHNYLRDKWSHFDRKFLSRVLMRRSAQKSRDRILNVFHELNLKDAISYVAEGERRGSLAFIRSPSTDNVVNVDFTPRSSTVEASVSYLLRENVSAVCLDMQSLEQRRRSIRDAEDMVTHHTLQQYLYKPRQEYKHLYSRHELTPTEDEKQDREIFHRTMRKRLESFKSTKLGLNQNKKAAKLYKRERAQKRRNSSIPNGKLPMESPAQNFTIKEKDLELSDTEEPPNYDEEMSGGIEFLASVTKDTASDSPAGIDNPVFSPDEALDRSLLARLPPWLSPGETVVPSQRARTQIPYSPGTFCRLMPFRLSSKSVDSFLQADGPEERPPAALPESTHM
Procedure, shortened: (§1)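 Fluorometric NHE3 antiport assay in opossum kidney cells carrying rat or human NHE3, using BCECF pH recovery after NH4Cl-prepulse acid loading. pIC50 values derive from initial rates averaged across at least two replicates.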

[3] = test system: absorption of sodium from the intestinal lumen; assay: Inhibition of intestinal sodium absorption: urinary sodium (uNa) 16 h after single oral dose in rats; assay type: in vivo, rat; conditions: oral gavage, 16 h post-dose
Procedure, shortened: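 Urinary sodium mass over the 16 h after one oral gavage dose, measured by cation-exchange ion chromatography, reported as percent of water-vehicle group; ANOVA plus Dunnett's post hoc test. Groups of six 8-week-old Sprague-Dawley rats, housed individually in metabolic cages post-dose, fed and watered freely.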

[4] = target: T2, Rat NHE3 (Rattus norvegicus, UniProt P26433); assay: Cell-based NHE3 activity under prompt conditions (OK cells, BCECF pH recovery), rat NHE3; conditions: prompt conditions; for IC50: read-out: Prompt Rat NHE3 pIC50 (converted)
T2 construct: expressed in transfected cells; host or cells: Opossum kidney (OK) cells (ATCC), electroporation
Procedure, shortened: as §1

[5] = test system: phosphorus and calcium levels in the urine of rats; assay: Urinary excretion of phosphate and calcium in rats (16 h overnight urine); assay type: in vivo, rat; conditions: rats, oral gavage, 16 h post-dose

T2 sequence (P26433 29-831): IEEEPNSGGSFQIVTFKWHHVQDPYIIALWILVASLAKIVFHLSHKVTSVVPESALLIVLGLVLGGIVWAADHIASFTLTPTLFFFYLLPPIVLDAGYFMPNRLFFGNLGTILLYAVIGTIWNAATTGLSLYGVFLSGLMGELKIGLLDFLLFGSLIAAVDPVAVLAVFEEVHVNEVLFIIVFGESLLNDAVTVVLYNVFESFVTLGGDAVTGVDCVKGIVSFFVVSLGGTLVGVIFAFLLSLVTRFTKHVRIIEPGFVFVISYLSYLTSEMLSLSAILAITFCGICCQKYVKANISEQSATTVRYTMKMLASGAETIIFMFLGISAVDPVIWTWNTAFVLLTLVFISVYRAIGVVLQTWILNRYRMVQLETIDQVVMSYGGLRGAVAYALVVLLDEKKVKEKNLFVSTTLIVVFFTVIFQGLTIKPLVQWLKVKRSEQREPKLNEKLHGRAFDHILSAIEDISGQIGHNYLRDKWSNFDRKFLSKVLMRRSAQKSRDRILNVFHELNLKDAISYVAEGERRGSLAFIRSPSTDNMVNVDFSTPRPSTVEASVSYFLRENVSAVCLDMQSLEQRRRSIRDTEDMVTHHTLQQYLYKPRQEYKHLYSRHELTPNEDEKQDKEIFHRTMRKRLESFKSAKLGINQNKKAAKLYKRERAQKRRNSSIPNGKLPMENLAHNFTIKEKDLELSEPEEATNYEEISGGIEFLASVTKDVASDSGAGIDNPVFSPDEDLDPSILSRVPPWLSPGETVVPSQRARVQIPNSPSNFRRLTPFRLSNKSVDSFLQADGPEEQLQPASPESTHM

| Structure (SMILES) | Prompt Human NHE3 pIC50 [2] | Prompt Rat NHE3 pIC50 [4] | IC50 ([2]; read-out: Prompt Human NHE3 pIC50 (converted)) | IC50 [4] | Fecal Form Score average ([1]; dose 3 mg/kg) | Urine Na % of control ([3]; dose 3 mg/kg) | Urine P % of control ([5]; dose 3 mg/kg) | Fecal Form Score average ([1]; dose 10 mg/kg) | Urine Na % of control ([3]; dose 10 mg/kg) | Urine P % of control ([5]; dose 10 mg/kg) | Fecal Form Score average ([1]; dose 1 mg/kg) | Urine Na % of control ([3]; dose 1 mg/kg) | Urine P % of control ([5]; dose 1 mg/kg) |
| --- | --- | --- | --- | --- | --- | --- | --- | --- | --- | --- | --- | --- | --- |
| N=C(N)Nc1nc(-c2ccc(OCCOCCOCCOCCN)cc2)c2cc(Cl)ccc2n1 [compound 37] | 7.50 | 7.50 |  |  |  |  |  | 1 | 63% | 101% |  |  |  |
| C/C(=C\c1cc(F)c(Oc2ccc(S(=O)(=O)NCCOCCOCCOCCNC(=O)NCCCCNC(=O)NCCOCCOCCOCCNS(=O)(=O)c3ccc(Oc4c(F)cc(/C=C(\C)C(=O)N=C(N)N)cc4F)cc3)cc2)c(F)c1)C(=O)N=C(N)N [compound 29] | 8.10 | 7.50 |  |  |  |  |  | 1 | 92% | 102% |  |  |  |
| CN1Cc2c(Cl)cc(Cl)cc2C(c2cccc(S(=O)(=O)NCCOCCOCCOCCNC(=O)NCCN(CCNC(=O)NCCOCCOCCOCCNS(=O)(=O)c3cccc([C@@H]4CN(C)Cc5c(Cl)cc(Cl)cc54)c3)CCNC(=O)NCCOCCOCCOCCNS(=O)(=O)c3cccc([C@@H]4CN(C)Cc5c(Cl)cc(Cl)cc54)c3)c2)C1 (stereo in doubt) [compound 59] | 7.30 | 6.90 |  |  |  |  |  | 2 | 18% | 45% |  |  |  |
| O=C(NCCCCNC(=O)NCCOCCOCCNS(=O)(=O)c1ccc(O[C@H]2c3ccccc3C[C@@H]2N2CCCCC2)cc1)NCCOCCOCCNS(=O)(=O)c1ccc(O[C@H]2c3ccccc3C[C@@H]2N2CCCCC2)cc1 (racemic) [compound 47] |  |  | 15.8 nM | 50.1 nM |  |  |  | 1 | 73% | 51% |  |  |  |
| CN1Cc2c(Cl)cc(Cl)cc2C(c2cccc(S(=O)(=O)NCCOCCOCCOCCNC(=O)CN(CCN(CCN(CC(=O)NCCOCCOCCOCCNS(=O)(=O)c3cccc([C@@H]4CN(C)Cc5c(Cl)cc(Cl)cc54)c3)CC(=O)NCCOCCOCCOCCNS(=O)(=O)c3cccc([C@@H]4CN(C)Cc5c(Cl)cc(Cl)cc54)c3)CC(=O)NCCOCCOCCOCCNS(=O)(=O)c3cccc([C@@H]4CN(C)Cc5c(Cl)cc(Cl)cc54)c3)CC(=O)NCCOCCOCCOCCNS(=O)(=O)c3cccc([C@@H]4CN(C)Cc5c(Cl)cc(Cl)cc54)c3)c2)C1 (stereo in doubt) [compound 75] | 6.90 | 6.30 |  |  |  |  |  | 1 | 81% | 55% |  |  |  |
| O=C(NCCCCNC(=O)NCCOCCOCCNS(=O)(=O)c1ccc(O[C@H]2c3cc(Cl)cc(Cl)c3C[C@@H]2N2CCCCC2)cc1)NCCOCCOCCNS(=O)(=O)c1ccc(O[C@H]2c3cc(Cl)cc(Cl)c3C[C@@H]2N2CCCCC2)cc1 [compound 68] | <5.00 | <5.00 |  |  |  |  |  | 1 | 70% | 97% |  |  |  |
| NCCOCCOCCNS(=O)(=O)c1ccc(O[C@H]2c3cc(Cl)cc(Cl)c3C[C@@H]2N2CCCCC2)cc1 [compound 62] | 7.25 | <5.00 |  |  |  |  |  | 1 | 121% | 77% |  |  |  |
| CN1Cc2c(Cl)cc(Cl)cc2[C@H](c2cccc(S(=O)(=O)NCCOCCOCCNC(=O)CN(CCOCCOCCN(CC(=O)NCCOCCOCCNS(=O)(=O)c3cccc([C@@H]4CN(C)Cc5c(Cl)cc(Cl)cc54)c3)CC(=O)NCCOCCOCCNS(=O)(=O)c3cccc([C@@H]4CN(C)Cc5c(Cl)cc(Cl)cc54)c3)CC(=O)NCCOCCOCCNS(=O)(=O)c3cccc([C@@H]4CN(C)Cc5c(Cl)cc(Cl)cc54)c3)c2)C1 [compound 85] | 6.10 | 5.80 |  |  |  |  |  | 1 | 92% | 85% |  |  |  |
| CN1Cc2c(Cl)cc(Cl)cc2[C@H](c2cccc(S(=O)(=O)NCCOCCOCCOCCNC(=O)CCN(CCC(=O)NCCOCCOCCOCCNS(=O)(=O)c3cccc([C@@H]4CN(C)Cc5c(Cl)cc(Cl)cc54)c3)CCC(=O)NCCOCCOCCOCCNS(=O)(=O)c3cccc([C@@H]4CN(C)Cc5c(Cl)cc(Cl)cc54)c3)c2)C1 [compound 79] | 7.20 |  |  | 316 nM | 2 | 44% | 81% | 3 | 17% | 33% | 1 | 65% | 109% |

Further lines, with some results ahead:

| Prompt Human NHE3 pIC50 [2] | Prompt Rat NHE3 pIC50 [4] | IC50 ([2]; read-out: Prompt Human NHE3 pIC50 (converted)) | IC50 [4] | Structure (SMILES) | Fecal Form Score average ([1]; dose 3 mg/kg) | Urine Na % of control ([3]; dose 3 mg/kg) | Urine P % of control ([5]; dose 3 mg/kg) | Fecal Form Score average ([1]; dose 10 mg/kg) | Urine Na % of control ([3]; dose 10 mg/kg) | Urine P % of control ([5]; dose 10 mg/kg) | Fecal Form Score average ([1]; dose 1 mg/kg) | Urine Na % of control ([3]; dose 1 mg/kg) | Urine P % of control ([5]; dose 1 mg/kg) |
| --- | --- | --- | --- | --- | --- | --- | --- | --- | --- | --- | --- | --- | --- |
| 8.20 | <5.00 |  |  | O=C(NCCCCNC(=O)NCCOCCOCCNS(=O)(=O)c1ccc(O[C@H]2c3cc(Cl)cc(Cl)c3C[C@@H]2N2CC[C@@H](O)C2)cc1)NCCOCCOCCNS(=O)(=O)c1ccc(O[C@H]2c3cc(Cl)cc(Cl)c3C[C@@H]2N2CC[C@@H](O)C2)cc1 [compound 87] | 1 | 54% | 29% |  |  |  |  |  |  |
| 7.20 | 6.70 |  |  | CN1Cc2c(Cl)cc(Cl)cc2[C@H](c2cccc(S(=O)(=O)NCCOCCOCCNC(=O)CCC(CCC(=O)NCCOCCOCCNS(=O)(=O)c3cccc([C@@H]4CN(C)Cc5c(Cl)cc(Cl)cc54)c3)(CCC(=O)NCCOCCOCCNS(=O)(=O)c3cccc([C@@H]4CN(C)Cc5c(Cl)cc(Cl)cc54)c3)NC(=O)Cc3nnn[nH]3)c2)C1 [compound 156] | 3 | 13% | 67% |  |  |  |  |  |  |
| 7.80 | 7.60 |  |  | CN1Cc2c(Cl)cc(Cl)cc2[C@H](c2cccc(S(=O)(=O)NCCOCCOCCNC(=O)CCC(CCC(=O)NCCOCCOCCNS(=O)(=O)c3cccc([C@@H]4CN(C)Cc5c(Cl)cc(Cl)cc54)c3)(CCC(=O)NCCOCCOCCNS(=O)(=O)c3cccc([C@@H]4CN(C)Cc5c(Cl)cc(Cl)cc54)c3)NC(=O)COCC(=O)O)c2)C1 [compound 139] | 3 | 27% | 45% |  |  |  | 1 | 80% | 63% |
| 7.27 | 7.25 |  |  | CN1Cc2c(Cl)cc(Cl)cc2[C@H](c2cccc(S(=O)(=O)NCCOCCOCCNC(=O)CCC(CCC(=O)NCCOCCOCCNS(=O)(=O)c3cccc([C@@H]4CN(C)Cc5c(Cl)cc(Cl)cc54)c3)(CCC(=O)NCCOCCOCCNS(=O)(=O)c3cccc([C@@H]4CN(C)Cc5c(Cl)cc(Cl)cc54)c3)NC(=O)NC[C@H](O)[C@@H](O)[C@H](O)[C@H](O)CO)c2)C1 [compound 143] | 3 | 34% | 93% |  |  |  | 1 | 68% | 73% |
| 7.20 |  |  | 794 nM | CN1Cc2c(Cl)cc(Cl)cc2[C@H](c2cccc(S(=O)(=O)NCCOCCOCCN(C)C(=O)NCCCN(CCCNC(=O)N(C)CCOCCOCCNS(=O)(=O)c3cccc([C@@H]4CN(C)Cc5c(Cl)cc(Cl)cc54)c3)CCCNC(=O)N(C)CCOCCOCCNS(=O)(=O)c3cccc([C@@H]4CN(C)Cc5cc(Cl)cc(Cl)c54)c3)c2)C1 [compound 131] | 2 | 38% | 68% |  |  |  |  |  |  |

From patent US20240366589A1, “NHE3-BINDING COMPOUNDS AND METHODS FOR INHIBITING PHOSPHATE TRANSPORT” (Ardelyx, Inc., priority 2013, published 2024)
